# Assay results as given in patent publication US7417025B2, “Use of poly-α2,8-sialic acid mimetic peptides to modulate NCAM functions” (Centre National de la Recherche Scientifique, priority 2002, dated 2008).
# What was measured:
# [1] = test system: spinal cord dorsal hemisection; experiment: Functional recovery from spinal cord injury (BBB test, rotarod test); assay type: in vivo, mouse
# Protocol: Male Swiss-CD1 mice (8-10 week-old) were anesthetized with a mixture of ketamine and xylazine. The spinal cord had been exposed by making a midline incision of the skin, and by retracting the paravertebral muscles. A laminectomy was performed at the T7-T8 level and the spinal cord exposed. Using iridectomy scissors, a bilateral dorsal hemisection, transecting left and right dorsal finiculus, the dorsal horns, but sparing most parts of the ventral fimiculus, was performed, resulting in a complete transection of the dorsomedial main Cortico Spinal Tract (CST). For the series of mice receiving the peptides a Surgicoll pledget saturated with 10 μl of either p65 or reverse p65 (10 μM) peptides was applied over the transection site and covered with petroleum jelly to prevent diffusion. All inside muscle layer were sutured using fine thread. Skin was sutured using surgical staples. […]
# Functional evaluation of the animals was performed at day (D) D1, D4, D7, D14, D21, D28, D35, during the first week following the spinal cord lesion and then on a weekly basis until D35, by two different observers blinded to group identity. Locomotor recovery was evaluated using the BBB test (Basso, Beattie and Bresnahan test; Basso et al., Restor. Neurol. Neurosci, 2002, 5, 189-218). […]
# [2] = test system: subventricular zone explants (neuronal precursors); experiment: Subventricular zone (SVZ) explant culture: cell migration in vitro; assay type: cell-based, mouse; conditions: 0.4 μM peptide
# mAb 735 = experiment: Competitive ELISA of biotinylated peptide-BSA conjugates on anti-PSA mAb; assay type: binding; conditions: for Binding of peptide to mAb 735 in competitive ELISA (percentage of binding): biotinylated peptide-BSA conjugate
# Source text: • mAb 735 and 30H12 • MaxiSorp™ plates (NUNC) for coating the antibody: ELISA plates • microtiter plates (NUNC) for peptide dilution: dilution plates • Biotinylated peptide-BSA conjugates prepared as above described • Extravidin alkaline phosphatase-avidin conjugate (SIGMA E2636) • p-nitrophenyl-phosphatase alkaline substrate (SIGMA 104-105) 2.1.2) Buffers • PBS pH 7.4 • Blocking solution: 0.5% BSA in PBS • TBS • TBST: TBS containing 0.05% Tween 20 • Extravidin alkaline phosphatase-avidin conjugate solution: 1/5000 in TBST • Alkaline phosphatase substrate solution; 1 tablet in 5 ml 50 mM NaHCO3, 1 mM MgCl2 solution, […]) Method
# Maxisorp™ plate wells were coated with 100 μl mAb solution (25 μg/ml) for 2 h at room temperature. The control wells of the ELISA plates were only coated with the blocking solution. In parallel, the peptide-BSA conjugate dilution plates were blocked with 200 μl blocking solution for 2 h. The antibody coated wells and the control wells were blocked with 200 μl blocking solution for 1 h. In parallel the peptide-BSA conjugate dilution plates were washed 6 times with TBST and 120 μl TBST was added to the wells. An appropriate volume of peptide-BSA conjugate solution was added to the first well and the volume adjusted to 140 μl with TBST. The peptide-BSA conjugate in well one was diluted in the ratio 1/7 by taking 20 μl out of the first well and transferring into the second also to achieve the total volume of 140 μl. This was repeated for the remaining wells. The peptide-BSA conjugate dilutions for the control wells were done the same way. The blocked ELISA plates were washed 6 times with TBST and the peptide-BSA conjugate dilutions or 100 μl of the mixed competitor solution was added to the wells. After incubation for 1 h, the wells were washed 10 times with TBST and 100 μl of the alkaline phosphatase substrate solution was added to the wells. The plates were read out after 10 to 60 min using a microplate reader at 405 nm.
# The specificity of peptide p21 (SEQ ID NO: 1) was investigated in a competition ELISA using biotinylated p21-BSA conjugate and a randomized variant of p21 (p22) conjugate as a control. The results presented in Tables X and XI are expressed as percentage of binding by comparison with peptide p21 at the highest concentration (9.45 10^-5 M) which corresponds to 100% binding.
# [3] = peptide-BSA conjugate, in words
sequence,measurement,setting,value
CSSVTAWTTGCG [p65],Rotarod test (fine motor coordination),[1]; D35,beneficial effect on recovery
same,BBB score (locomotor recovery),"[1]; versus p65-reverse controls, starting from D14 post-injury, 10 μl of 10 μM peptide at lesion",significantly higher
same,Increase in the rate of migration of the neuronal precursors compared with the control without peptide,[2],+40%
DSPLVPFIDFHP [p21],Binding of peptide to mAb 735 in competitive ELISA (percentage of binding),"mAb 735; peptide 1.62 10^−9 M, + chondroitin sulfate C",50 ± 1%
same,Binding of peptide to mAb 735 in competitive ELISA (percentage of binding),"mAb 735; peptide 1.62 10^−9 M, + colominic acid 1 mM",0 ± 1%
same,Binding of peptide to mAb 735 in competitive ELISA (percentage of binding),"mAb 735; peptide 1.62 10^−9 M, no competitor",56 ± 4%
same,Binding of peptide to mAb 735 in competitive ELISA (percentage of binding),"mAb 735; peptide 1.67 10^−5 M, + chondroitin sulfate C",99 ± 4%
same,Binding of peptide to mAb 735 in competitive ELISA (percentage of binding),"mAb 735; peptide 1.67 10^−5 M, + colominic acid 1 mM",34 ± 3%
same,Binding of peptide to mAb 735 in competitive ELISA (percentage of binding),"mAb 735; peptide 1.67 10^−5 M, no competitor",93 ± 10%
same,Binding of peptide to mAb 735 in competitive ELISA (percentage of binding),"mAb 735; peptide 2.86 10^−9 M, + chondroitin sulfate C",11 ± 2%
same,Binding of peptide to mAb 735 in competitive ELISA (percentage of binding),"mAb 735; peptide 2.86 10^−9 M, + colominic acid 1 mM",0 ± 0%
same,Binding of peptide to mAb 735 in competitive ELISA (percentage of binding),"mAb 735; peptide 2.86 10^−9 M, no competitor",13 ± 1%
same,Binding of peptide to mAb 735 in competitive ELISA (percentage of binding),"mAb 735; peptide 2.94 10^−6 M, + chondroitin sulfate C",99 ± 8%
same,Binding of peptide to mAb 735 in competitive ELISA (percentage of binding),"mAb 735; peptide 2.94 10^−6 M, + colominic acid 1 mM",23 ± 1%
same,Binding of peptide to mAb 735 in competitive ELISA (percentage of binding),"mAb 735; peptide 2.94 10^−6 M, no competitor",95 ± 1%
same,Binding of peptide to mAb 735 in competitive ELISA (percentage of binding),"mAb 735; peptide 5.04 10^−10 M, + chondroitin sulfate C",3 ± 0%
same,Binding of peptide to mAb 735 in competitive ELISA (percentage of binding),"mAb 735; peptide 5.04 10^−10 M, + colominic acid 1 mM",0 ± 0%
same,Binding of peptide to mAb 735 in competitive ELISA (percentage of binding),"mAb 735; peptide 5.04 10^−10 M, no competitor",2 ± 0%
same,Binding of peptide to mAb 735 in competitive ELISA (percentage of binding),"mAb 735; peptide 5.20 10^−7 M, + chondroitin sulfate C",94 ± 7%
same,Binding of peptide to mAb 735 in competitive ELISA (percentage of binding),"mAb 735; peptide 5.20 10^−7 M, + colominic acid 1 mM",15 ± 3%
same,Binding of peptide to mAb 735 in competitive ELISA (percentage of binding),"mAb 735; peptide 5.20 10^−7 M, no competitor",91 ± 2%
same,Binding of peptide to mAb 735 in competitive ELISA (percentage of binding),"mAb 735; peptide 8.89 10^−11 M, + chondroitin sulfate C",2 ± 0%
same,Binding of peptide to mAb 735 in competitive ELISA (percentage of binding),"mAb 735; peptide 8.89 10^−11 M, + colominic acid 1 mM",0 ± 0%
same,Binding of peptide to mAb 735 in competitive ELISA (percentage of binding),"mAb 735; peptide 8.89 10^−11 M, no competitor",0 ± 0%
same,Binding of peptide to mAb 735 in competitive ELISA (percentage of binding),"mAb 735; peptide 9.27 10^−8 M, + chondroitin sulfate C",92 ± 2%
same,Binding of peptide to mAb 735 in competitive ELISA (percentage of binding),"mAb 735; peptide 9.27 10^−8 M, + colominic acid 1 mM",5 ± 2%
same,Binding of peptide to mAb 735 in competitive ELISA (percentage of binding),"mAb 735; peptide 9.27 10^−8 M, no competitor",93 ± 9%
same,Binding of peptide to mAb 735 in competitive ELISA (percentage of binding),"mAb 735; peptide 9.45 10^−5 M, + chondroitin sulfate C",96 ± 8%
same,Binding of peptide to mAb 735 in competitive ELISA (percentage of binding),"mAb 735; peptide 9.45 10^−5 M, + colominic acid 1 mM",43 ± 3%
same,Binding of peptide to mAb 735 in competitive ELISA (percentage of binding),"mAb 735; peptide 9.45 10^−5 M, no competitor",100 ± 11%
same,Binding of peptide to mAb 735,mAb 735; [3],binds specifically to mAb 735 in a concentration-dependent manner
same,Effect of chondroitin sulfate C on peptide binding to mAb 735,mAb 735; [3],no influence
same,Effect of colominic acid on peptide binding to mAb 735,mAb 735; [3],clear inhibition
